In US10220100B2, “Halogenated phenols for diagnostics, antioxidant protection and drug delivery” (priority 2011, dated 2019):
One block for each compound: values may come before it.

What was measured:
[1] = Cleavage of the C—C bond during the oxidative dehalogenation reaction; assay type: physicochemical; details: presence of free radicals and/or oxidative agents
Text: It has also been discovered that other types of bonds or linkages may also be cleaved by oxidative or free radical-mediated dehalogenation of the phenol ring. For example, as described herein, it has now been observed that a carbonyl linkage, a nitrogen linkage, a sulfinyl linkage and possibly a C—C bond on the phenol ring may also be cleaved by the oxidative dehalogenation reaction. These bonds are also considered stable, and their cleavage in connection with the dehalogenation reaction is surprising as well. One caveat with the C—C bond or linkage is that depending on the particular starting compound structure and the substituents or groups attached to the halogenated phenol ring via the C—C bond, the C—C bond or linkage may or may not be generally cleaved during or following the dehalogenation reaction (see below). […] However, other compounds do become cleaved. It is important to note that whether a C—C bond of a particular starting compound is “cleavable,” or becomes cleaved, may not be all-or-nothing (i.e., the C—C bond may be considered non-cleavable even though a small or minute amount of cleavage may occur, and vice versa). Thus, the amount or percentage of cleavage may be partial with the alternatively cleaved or non-cleaved product being possibly undetected or minute. […]

[2] = system: spontaneous mammary tumors; details: 10 mg by gavage; X-ray imaging about two hours after; mice with spontaneous tumors; same mice before treatment showed no foci
Text: As described above, oxidative foci or tumors may be identified by X-ray radiographic imaging of animals following administration of an indigogenic compound of the present invention. The radio-opaque indigo-like product formed and deposited with residence time in FROS-containing tumor tissues may then be detected.
In this example, female C3H/HeN mice were obtained as multiparous retired breeders (i.e., after 3 to 4 litters) that were positive for a mammary tumor virus. […] Mice showing spontaneous tumors were given 10 mg of 5-Iodo-Indoxyl-3′,5′-Diiodo-4′-hydroxy ether substrate (product of Example 4) by gavage. These mice were then subjected to X-ray imaging of the tumors about two hours after being fed the iodo-indigogenic compound. […] When developed, the X-ray film appears dark in areas where more transmission occurs and light in areas where less transmission occurs.

[3] = system: sites of the wound or injury; details: mice administered the compound, small injuries (cuts, scratches); data not shown
[4] = system: thyroid hormone activity; details: cited from earlier work
[5] = Spontaneous dehalogenation and ether cleavage in buffered aqueous solution exposed to sunlight; assay type: physicochemical; details: about 1 mM in carbonate buffer (pH 8.0), sunlight for about one hour; yellow/orange solution, iodide released
Text: In contrast to reductive deiodination, spontaneous dehalogenation (e.g., deiodination) of a halogentated phenol ring in the presence of an oxidizing agent(s) and/or free radical(s) with cleavage of a chemical linkage, such as an ether linkage, etc., between the phenol ring and a conjugated compound has not been described. According to the present invention, cleavage of the ether linkage between the aromatic rings of thyroid hormone may form visibly colored quinone and iodine-containing products in buffered aqueous solutions in vitro, and this ether cleavage reaction may be accelerated under basic pH conditions and with exposure to ionizing radiation or light. These conditions favor the increased formation of oxidizing agents and/or free radicals, which are believed to promote the reaction. […] A quinone and an iodotyrosine product are also formed by cleavage of the ether linkage during the reaction. According to embodiments of the present invention, a spontaneous reaction of dehalogenation and cleavage of a chemical bond is proposed for the targeted delivery and release of a drug compound at or to sites of inflammation or disease. This spontaneous reaction is further proposed as a basis for scavenging free radicals and/or oxidative agents (FROS) as well as for the creation of a detectable compound(s) that may be used for diagnostic purposes.

cleavage of C—C bond with the dehalogenation reaction [1]: generally not to be cleaved
cleavage of C—C bond with the dehalogenation reaction ([1]; listed as MIT): generally not be cleaved
Structure (SMILES): N[C@@H](Cc1ccc(O)c(I)c1)C(=O)O [mono-iodotyrosine, 3-iodo-4-hydroxy-L-phenylalanine]

Structure (SMILES): Oc1c(I)cc(Oc2c[nH]c3ccc(I)cc23)cc1I [5-Iodo-Indolyl-3′,5′-Diiodo-4′-hydroxyl-p-Phenol Ether]
radio-opaque tumor regions or foci by X-ray [2]: radio-opaque tumor regions or foci
X-ray detection at sites of wound or injury [3]: strong detection was observed at the sites of the wound or injury

Structure (SMILES): N[C@@H](Cc1ccc(Oc2cc(I)c(O)c(I)c2)c(I)c1)C(=O)O [Reverse T3, 3,3′,5′-triiodothyronine]
thyroid hormone activity [4]: no measurable thyroid hormone activity

Structure (SMILES): N[C@@H](Cc1cc(I)c(Oc2cc(I)c(O)c(I)c2)c(I)c1)C(=O)O [thyroxine]
cleavage of the ether linkage [5]: the ether linkage is broken spontaneously
